Source: patent US10975068B2, “6-aminopyridin-3-yl thiazoles as modulators of RORγT” (Janssen Pharmaceutica NV, priority 2016, dated 2021)
pIC50, pKd: −log10 of the molar value. Like-named read-outs stand apart in the source and are kept apart here.

Tests used:
full-length human RORγt = full-length human RORγt (Homo sapiens (Human), UniProt P51449); assay: RORγt (full-length human) reporter assay, Conditions B or C; assay type: cell-based; conditions: for inhibition at 3 µM: at 3 μM compound concentration, read-out: RORγt (FL) Reporter Assay B or C, % inhibition; for RORγt (FL) Reporter Assay B or C, % inhibition (value marked *): marked *: footnote not given
Chain of full-length human RORγt (P51449 other isoform, or with tags, fused parts or gaps): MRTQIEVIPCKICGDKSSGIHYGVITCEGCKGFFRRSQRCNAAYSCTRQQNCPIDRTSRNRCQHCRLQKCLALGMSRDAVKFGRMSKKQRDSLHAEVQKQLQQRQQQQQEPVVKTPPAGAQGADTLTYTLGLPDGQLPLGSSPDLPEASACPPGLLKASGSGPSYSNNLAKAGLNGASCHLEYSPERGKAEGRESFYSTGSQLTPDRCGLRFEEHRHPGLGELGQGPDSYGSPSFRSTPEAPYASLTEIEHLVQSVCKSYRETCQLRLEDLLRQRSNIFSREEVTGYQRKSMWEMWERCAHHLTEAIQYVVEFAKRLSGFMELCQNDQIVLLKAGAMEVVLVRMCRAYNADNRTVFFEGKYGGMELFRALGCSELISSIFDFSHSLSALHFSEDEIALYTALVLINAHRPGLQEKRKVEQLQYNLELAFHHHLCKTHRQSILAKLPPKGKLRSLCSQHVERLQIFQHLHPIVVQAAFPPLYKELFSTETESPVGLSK
How it was run: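 HEK293T cells transiently co-transfected with GAL4-DBD–full-length human RORγt (nt 142-1635, NM_001001523.1) plus GAL4-firefly and CMV-Renilla luciferase reporters; compounds added 4-6 h post-transfection for 16-20 h in 1.3% FBS, 0.1% DMSO. Firefly signal normalized to DMSO and saturating reference compound, then to Renilla; IC50 from concentration plots.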

[1] = target: human RORγt ligand binding domain (RORγt LBD) (Homo sapiens (Human), UniProt P51449); assay: RORγt ThermoFluor® assay (thermal shift binding); conditions: read-out: ThermoFluor® Assay, Kd
Chain of human RORγt ligand binding domain (RORγt LBD) (P51449 other isoform, or with tags, fused parts or gaps): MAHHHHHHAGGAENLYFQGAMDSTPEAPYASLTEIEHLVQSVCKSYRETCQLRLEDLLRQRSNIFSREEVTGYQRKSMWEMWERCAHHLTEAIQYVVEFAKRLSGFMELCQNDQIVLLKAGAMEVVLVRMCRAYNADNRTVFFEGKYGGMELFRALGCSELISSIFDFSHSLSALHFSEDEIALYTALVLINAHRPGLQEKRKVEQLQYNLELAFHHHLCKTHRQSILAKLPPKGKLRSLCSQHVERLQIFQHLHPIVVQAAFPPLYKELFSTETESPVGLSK
How it was run: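 His-tagged human RORγt LBD (0.065 mg/mL) with 60 μM 1,8-ANS in 100 mM Hepes pH 7.0, 10 mM NaCl, 2.5 mM GSH, 0.002% Tween-20 was heated at 1 °C/min.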

[2] = read-out: RORγt (FL) Reporter Assay B or C, IC50
[3] = Conditions B or C, read-out: RORγt (FL) Reporter Assay B or C, IC50

Row | SMILES | inhibition at 3 µM (full-length human RORγt) | pIC50 (full-length human RORγt; [2]) | pKd [1] | RORγt (FL) Reporter Assay B or C, % inhibition (value marked *) (full-length human RORγt; Conditions B or C) | pIC50 (full-length human RORγt; [3]) | inhibition at 6 µM (full-length human RORγt; read-out: RORγt (FL) Reporter Assay B or C, % inhibition @ 6 μM, Conditions B or C, @ 6 μM) | pIC50 (full-length human RORγt; RORγt (FL) Reporter Assay B or C, IC50)
1 | C[C@H]1CCCN1C(=O)c1nc(C(=O)N2CCC(C)(O)C2)sc1-c1cnc(NC(C)(C)C)cc1C(F)(F)F (stereo partly drawn) [Example 364, (5-(6-(tert-Butylamino)-4-(trifluoromethyl)pyridin-3-yl)-2-(3-hydroxy-3-methylpyrrolidine-1-carbonyl)thiazol-4-yl)((S)-2-methylpyrrolidin-1-yl)methanone] | 111% | 7.41 | 8.10 |  |  |  | 
2 | C[C@H]1CCCN1C(=O)c1nc(C(=O)N2C[C@@H](O)[C@H](F)C2)sc1-c1cnc(NC(C)(C)C)cc1C(F)(F)F [Example 372, [5-[6-(tert-Butylamino)-4-(trifluoromethyl)-3-pyridyl]-2-[(3R,4R)-3-fluoro-4-hydroxy-pyrrolidine-1-carbonyl]thiazol-4-yl]-[(2S)-2-methylpyrrolidin-1-yl]methanone] | 125% | 7.23 | 8.04 |  |  |  | 
3 | CC[C@H](Nc1cc(C(F)F)c(-c2sc(C(=O)N3CCOCC3)nc2C(=O)N2CCC[C@@H]2C)cn1)C(F)(F)F [Example 395, [5-[4-(Difluoromethyl)-6-[[(1S)-1-(trifluoromethyl)propyl]amino]-3-pyridyl]-2-(morpholine-4-carbonyl)thiazol-4-yl]-[(2S)-2-methylpyrrolidin-1-yl]methanone] | 103% | 7.47 | 7.40 |  |  |  | 
4 | CCC(C)(C)Nc1cc(C(F)F)c(-c2sc(C(=O)NCC(C)(C)O)nc2C(=O)N2CCC[C@@H]2C)cn1 [Example 96, (S)-5-(4-(Difluoromethyl)-6-(tert-pentylamino)pyridin-3-yl)-N-(2-hydroxy-2-methylpropyl)-4-(2-methylpyrrolidine-1-carbonyl)thiazole-2-carboxamide] |  |  | 8.92 | 119* % | 7.43 |  | 
5 | C[C@H]1CCCN1C(=O)c1nc(C(=O)NCC(C)(C)O)sc1-c1cnc(N[C@@H](C2CC2)C(F)(F)F)cc1C(F)F [Example 295] | 108% | 7.85 | 8.54 |  |  |  | 
6 | CC[C@@H](Nc1cc(C(F)F)c(-c2sc(C(=O)N[C@@H]3COC[C@H]3O)nc2C(=O)N2CCC[C@@H]2C)cn1)C(F)(F)F [Example 204, 5-(4-(Difluoromethyl)-6-(((1R)-1-(trifluoromethyl)propyl)amino)-3-pyridyl)-N-((3R,4S)-4-hydroxytetrahydrofuran-3-yl)-4-((2S)-2-methylpyrrolidine-1-carbonyl)thiazole-2-carboxamide] |  |  | 8.44 | 105* % | 7.62 |  | 
7 | C[C@H](Nc1cc(C(F)F)c(-c2sc(C(=O)NCC(C)(C)O)nc2C(=O)N2C3CCC2CC3)cn1)C1CC1 [Example 55, 4-((1s,4s)-7-Azabicyclo[2.2.1]heptane-7-carbonyl)-5-(6-(((S)-1-cyclopropylethyl)amino)-4-(difluoromethyl)pyridin-3-yl)-N-(2-hydroxy-2-methylpropyl)thiazole-2-carboxamide] |  |  | 8.10 | 92* % | 7.51 |  | 
8 | C[C@H]1CC(F)(F)CN1C(=O)c1nc(C(=O)NCC(C)(C)O)sc1-c1cnc(NCC(C)(C)C(F)(F)F)cc1C(F)(F)F [Example 121, (S)-4-(4,4-Difluoro-2-methylpyrrolidine-1-carbonyl)-N-(2-hydroxy-2-methylpropyl)-5-(6-((3,3,3-trifluoro-2,2-dimethylpropyl)amino)-4-(trifluoromethyl)pyridin-3-yl)thiazole-2-carboxamide] |  |  | 9.19 | 104* % | 7.60 |  | 
9 | C[C@H](Nc1cc(C(F)F)c(-c2sc(C(=O)N[C@H]3COC[C@H]3O)nc2C(=O)N2CCC[C@@H]2C)cn1)C(F)(F)F (single isomer, unassigned) [Example 160, 5-(4-(Difluoromethyl)-6-(((S)-1,1,1-trifluoropropan-2-yl)amino)pyridin-3-yl)-N-((3S*,4S*)-4-hydroxytetrahydrofuran-3-yl)-4-((S)-2-methylpyrrolidine-1-carbonyl)thiazole-2-carboxamide] |  |  | 8.06 | 101* % | 6.39 |  | 
10 | C[C@H]1CC(F)(F)CN1C(=O)c1nc(C(=O)NC2CCS(=O)(=O)CC2)sc1-c1cnc(NC2(C)CCC2)cc1C(F)F [Example 328, (S)-4-(4,4-Difluoro-2-methylpyrrolidine-1-carbonyl)-5-(4-(difluoromethyl)-6-((1-methylcyclobutyl)amino)pyridin-3-yl)-N-(1,1-dioxidotetrahydro-2H-thiopyran-4-yl)thiazole-2-carboxamide] | 87% | 7.29 | 9.51 |  |  |  | 
11 | C[C@H](CO)NC(=O)c1nc(C(=O)N2C3CCC2CC3)c(-c2cnc(N[C@@H](C)C(F)(F)F)cc2C(F)F)s1 [Example 226, 4-((1s,4s)-7-Azabicyclo[2.2.1]heptane-7-carbonyl)-5-(4-(difluoromethyl)-6-(((1S)-2,2,2-trifluoro-1-methyl-ethyl)amino)-3-pyridyl)-N-((1R)-2-hydroxy-1-methyl-ethyl)thiazole-2-carboxamide] |  |  | 7.85 | 94* % | 6.85 |  | 
12 | CC[C@H](Nc1cc(C(F)F)c(-c2sc(C(=O)N[C@H](C)C(C)(C)O)nc2C(=O)N2CCCC[C@@H]2C)cn1)C(F)(F)F [Example 241, 5-[4-(Difluoromethyl)-6-[[(1S)-1-(trifluoromethyl)propyl]amino]-3-pyridyl]-N-[(1R)-2-hydroxy-1,2-dimethyl-propyl]-4-[(2S)-2-methylpiperidine-1-carbonyl]thiazole-2-carboxamide] |  |  | 9.23 | 103* % | 7.62 |  | 
13 | CCC(C)(C)Nc1cc(C(F)(F)F)c(-c2sc(C(=O)NCC(C)(C)O)nc2C(=O)N2CC(F)(F)C[C@@H]2C)cn1 [Example 103, (S)-4-(4,4-Difluoro-2-methylpyrrolidine-1-carbonyl)-N-(2-hydroxy-2-methylpropyl)-5-(6-(tert-pentylamino)-4-(trifluoromethyl)pyridin-3-yl)thiazole-2-carboxamide] |  |  | 9.59 | 110* % | 8.41 |  | 
14 | CC[C@H](Nc1cc(C(F)F)c(-c2sc(C(=O)NC3CN(C(C)=O)C3)nc2C(=O)N2CCC[C@@H]2C)cn1)C(F)(F)F [Example 382, N-(1-Acetylazetidin-3-yl)-5-[4-(difluoromethyl)-6-[[(1S)-1-(trifluoromethyl)propyl]amino]-3-pyridyl]-4-[(2S)-2-methylpyrrolidine-1-carbonyl]thiazole-2-carboxamide] | 107% | 6.52 | 7.33 |  |  |  | 
15 | C[C@H]1CCCN1C(=O)c1nc(C(=O)NCC(C)(C)O)sc1-c1cnc(N[C@H]2CCCCC2(F)F)cc1C(F)(F)F (relative stereo) [Example 36, 5-(6-(((S*)-2,2-Difluorocyclohexyl)amino)-4-(trifluoromethyl)pyridin-3-yl)-N-(2-hydroxy-2-methylpropyl)-4-((S)-2-methylpyrrolidine-1-carbonyl)thiazole-2-carboxamide] |  |  | 8.77 |  | 7.80 | 116% | 
16 | O=C(N[C@H]1CC[C@H](O)C1)c1nc(C(=O)N2C3CCC2CC3)c(-c2cnc(N[C@@H](C3CC3)C(F)(F)F)cc2C(F)F)s1 [Example 441, 4-((1s,4s)-7-Azabicyclo[2.2.1]heptane-7-carbonyl)-5-[6-[[(1S)-1-cyclopropyl-2,2,2-trifluoro-ethyl]amino]-4-(difluoromethyl)-3-pyridyl]-N-[(1S,3S)-3-hydroxycyclopentyl]thiazole-2-carboxamide] | 106% |  | 9.33 |  |  |  | 7.44
17 | CC[C@@H](Nc1cc(C(F)F)c(-c2sc(C(=O)N[C@@H](C)C(C)(C)O)nc2C(=O)N2CCC[C@@H]2C)cn1)C(F)(F)F [Example 230] |  |  | 8.62 | 99* % | 7.82 |  | 
18 | C[C@H]1CCCN1C(=O)c1nc(C(=O)NCC(C)(C)O)sc1-c1cnc(NCC2(C)CC2)cc1C(F)(F)F [Example 278, N-(2-Hydroxy-2-methyl-propyl)-5-[6-[(1-methylcyclopropyl)methylamino]-4-(trifluoromethyl)-3-pyridyl]-4-[(2S)-2-methylpyrrolidine-1-carbonyl]thiazole-2-carboxamide] | 100% | 7.40 | 8.13 |  |  |  | 
19 | O=C(N[C@H]1CC[C@@H]1O)c1nc(C(=O)N2C3CCC2CC3)c(-c2cnc(N[C@@H](C3CC3)C(F)(F)F)cc2C(F)F)s1 (relative stereo) [Example 444, 4-((1s,4s)-7-Azabicyclo[2.2.1]heptane-7-carbonyl)-5-(6-(((S)-1-cyclopropyl-2,2,2-trifluoroethyl)amino)-4-(difluoromethyl)pyridin-3-yl)-N-((1S*,2S*)-2-hydroxycyclobutyl)thiazole-2-carboxamide] | 102% | 8.35 | 8.64 |  |  |  | 
